From patent publication US11006631B2, “Substituted pyrimidinyloxy pyridine derivatives as herbicides” (FMC Corporation, priority 2015, dated 2021)

Columns and labels:
Format in all cases: in vivo
[1] = system: ryegrass, Italian (Italian ryegrass, Lolium multiflorum); assay: Test A preemergence, ryegrass, Italian; settings: 0 to 100 scale
Excerpt: (§1) Seeds of plant species selected from bamyardgrass (Echinochloa crus-galli), kochia (Kochia scoparia), ragweed (common ragweed, Ambrosia elatior), ryegrass, Italian (Italian ryegrass, Lolium multiflorum), foxtail, giant (giant foxtail, Setaria faberii), pigweed (Amaranthus retroflexus), crabgrass, large (large crabgrass, Digitaria sanguinalis), momingglory (Ipomoea spp.), velvetleaf (Abutilon theophrasti), wheat (Triticum aestivum), and corn (Zea mays) were planted into a blend of loam soil and sand and treated preemergence with a directed soil spray using test chemicals formulated in a non-phytotoxic solvent mixture which included a surfactant. At the same time, plants selected from these crop and weed species and also blackgrass (Alopecurus myosuroides), and galium (catchweed bedstraw, Galium aparine) were planted in pots containing the same blend of loam soil and sand and treated with postemergence applications of test chemicals formulated in the same manner. Plants ranged in height from 2 to 10 cm and were in the one- to two-leaf stage for the postemergence treatment. Treated plants and untreated controls were maintained in a greenhouse for approximately 10 days, after which time all treated plants were compared to untreated controls and visually evaluated for injury. Plant response ratings, summarized in Table A, are based on a 0 to 100 scale where 0 is no effect and 100 is complete control. A dash (-) response means no test result.

[2] = system: foxtail, giant (giant foxtail, Setaria faberii); assay: Test A preemergence, foxtail, giant; settings: 0 to 100 scale
Excerpt: as §1

[3] = system: galium (catchweed bedstraw, Galium aparine); assay: Test A postemergence, galium; settings: 0 to 100 scale
Excerpt: as §1

[4] = system: pigweed (Amaranthus retroflexus); assay: Test A preemergence, pigweed; settings: 0 to 100 scale
Excerpt: as §1

[5] = system: wheat (Triticum aestivum); assay: Test A postemergence, wheat; settings: 0 to 100 scale
Excerpt: as §1

[6] = system: barnyardgrass (Echinochloa crus-galli); assay: Test A preemergence, barnyardgrass; settings: 0 to 100 scale
Excerpt: as §1

[7] = system: barnyardgrass (Echinochloa crus-galli); assay: Test A postemergence, barnyardgrass; settings: 0 to 100 scale
Excerpt: as §1

kochia (Kochia scoparia) [8] = assay: Test A preemergence, kochia; settings: 0 to 100 scale
Excerpt: as §1

[9] = system: ragweed (common ragweed, Ambrosia elatior); assay: Test A postemergence, ragweed; settings: 0 to 100 scale
Excerpt: as §1

[10] = system: sedge, umbrella (small-flower umbrella sedge, Cyperus difformis); assay: Test B flooded paddy test, sedge, umbrella; settings: Flood, 250 g ai/ha; scale of 0 to 100
Experimental: (§2) Plant species in the flooded paddy test selected from rice (Oryza sativa), sedge, umbrella (small-flower umbrella sedge, Cyperus difformis), ducksalad (Heteranthera limosa), and barnyardgrass (Echinochloa crus-galli) were grown to the 2-leaf stage for testing. At time of treatment, test pots were flooded to 3 cm above the soil surface, treated by application of test compounds directly to the paddy water, and then maintained at that water depth for the duration of the test. Treated plants and controls were maintained in a greenhouse for 13 to 15 days, after which time all species were compared to controls and visually evaluated. Plant response ratings, summarized in Table B, are based on a scale of 0 to 100 where 0 is no effect and 100 is complete control. A dash (-) response means no test result.

[11] = system: ducksalad (Heteranthera limosa); assay: Test B flooded paddy test, ducksalad; settings: Flood, 250 g ai/ha; scale of 0 to 100
Experimental: as §2

kochia (Kochia scoparia) [12] = assay: Test A postemergence, kochia; settings: 0 to 100 scale
Excerpt: as §1

rice (Oryza sativa) = assay: Test B flooded paddy test, rice; settings: Flood, 250 g ai/ha; scale of 0 to 100
Experimental: as §2

[13] = system: foxtail, giant (giant foxtail, Setaria faberii); assay: Test A postemergence, foxtail, giant; settings: 0 to 100 scale
Excerpt: as §1

corn (Zea mays) = assay: Test A postemergence, corn; settings: 0 to 100 scale
Excerpt: as §1

[14] = system: barnyardgrass (Echinochloa crus-galli); assay: Test B flooded paddy test, barnyardgrass; settings: Flood, 250 g ai/ha; scale of 0 to 100
Experimental: as §2

[15] = system: blackgrass (Alopecurus myosuroides); assay: Test A postemergence, blackgrass; settings: 0 to 100 scale
Excerpt: as §1

[16] = system: ryegrass, Italian (Italian ryegrass, Lolium multiflorum); assay: Test A postemergence, ryegrass, Italian; settings: 0 to 100 scale
Excerpt: as §1

[17] = system: ragweed (common ragweed, Ambrosia elatior); assay: Test A preemergence, ragweed; settings: 0 to 100 scale
Excerpt: as §1

[18] = system: pigweed (Amaranthus retroflexus); assay: Test A postemergence, pigweed; settings: 0 to 100 scale
Excerpt: as §1

Structure (SMILES)	Plant response rating, Ryegrass, Italian ([1]; 125 g ai/ha)	Plant response rating, Foxtail, Giant ([2]; 125 g ai/ha)	Plant response rating, Galium ([3]; 125 g ai/ha)	Plant response rating, Pigweed ([4]; 125 g ai/ha)	Plant response rating, Wheat ([5]; 125 g ai/ha)	Plant response rating, Barnyardgrass ([6]; 125 g ai/ha)	Plant response rating, Barnyardgrass ([7]; 125 g ai/ha)	Plant response rating, Kochia (kochia (Kochia scoparia) [8]; 125 g ai/ha)	Plant response rating, Ragweed ([9]; 125 g ai/ha)	Plant response rating, Sedge, Umbrella [10]	Plant response rating, Ducksalad [11]	Plant response rating, Kochia (kochia (Kochia scoparia) [12]; 125 g ai/ha)	Plant response rating, Rice (rice (Oryza sativa))	Plant response rating, Foxtail, Giant ([13]; 125 g ai/ha)	Plant response rating, Corn (corn (Zea mays); 125 g ai/ha)	Plant response rating, Barnyardgrass [14]	Plant response rating, Blackgrass ([15]; 125 g ai/ha)	Plant response rating, Ryegrass, Italian ([16]; 125 g ai/ha)	Plant response rating, Ragweed ([17]; 125 g ai/ha)	Plant response rating, Pigweed ([18]; 125 g ai/ha)	other results
FC(F)c1cc(-c2ncccc2Oc2ncc(Cl)cn2)no1 [Compound 6, 5-chloro-2-[[2-[5-(difluoromethyl)-3-isoxazolyl]-3-pyridinyl]oxy]pyrimidine]	0	90	70	100	30	70	30	90	40	0	30	100	0	40	30	0	20	10	50	100	Plant response rating, Ryegrass, Italian ([1]; 31 g ai/ha): 0; Plant response rating, Foxtail, Giant ([2]; 31 g ai/ha): 0; Plant response rating, Galium ([3]; 31 g ai/ha): 50; Plant response rating, Pigweed ([4]; 31 g ai/ha): 90; Plant response rating, Wheat ([5]; 31 g ai/ha): 20; Plant response rating, Barnyardgrass ([6]; 31 g ai/ha): 0; Plant response rating, Barnyardgrass ([7]; 31 g ai/ha): 10; Plant response rating, Kochia (kochia (Kochia scoparia) [8]; 31 g ai/ha): 60; Plant response rating, Ragweed ([9]; 31 g ai/ha): 20; Plant response rating, Kochia (kochia (Kochia scoparia) [12]; 31 g ai/ha): 90; Plant response rating, Foxtail, Giant ([13]; 31 g ai/ha): 20; Plant response rating, Corn (corn (Zea mays); 31 g ai/ha): 20; Plant response rating, Blackgrass ([15]; 31 g ai/ha): 0; Plant response rating, Ryegrass, Italian ([16]; 31 g ai/ha): 0; Plant response rating, Ragweed ([17]; 31 g ai/ha): 0; Plant response rating, Pigweed ([18]; 31 g ai/ha): 70
Cc1cnc(-n2ccc(C(F)(F)F)n2)c(Oc2ncc(Cl)cn2)c1 [Compound 13]	0	0	0	0	0	0	0	0	0	0	0	0	0	0	0	0	0	0	0	0	Plant response rating, Ryegrass, Italian ([1]; 31 g ai/ha): 0; Plant response rating, Foxtail, Giant ([2]; 31 g ai/ha): 0; Plant response rating, Galium ([3]; 31 g ai/ha): 0; Plant response rating, Pigweed ([4]; 31 g ai/ha): 0; Plant response rating, Wheat ([5]; 31 g ai/ha): 0; Plant response rating, Barnyardgrass ([6]; 31 g ai/ha): 0; Plant response rating, Barnyardgrass ([7]; 31 g ai/ha): 0; Plant response rating, Kochia (kochia (Kochia scoparia) [8]; 31 g ai/ha): 0; Plant response rating, Ragweed ([9]; 31 g ai/ha): 0; Plant response rating, Kochia (kochia (Kochia scoparia) [12]; 31 g ai/ha): 0; Plant response rating, Foxtail, Giant ([13]; 31 g ai/ha): 0; Plant response rating, Corn (corn (Zea mays); 31 g ai/ha): 0; Plant response rating, Blackgrass ([15]; 31 g ai/ha): 0; Plant response rating, Ryegrass, Italian ([16]; 31 g ai/ha): 0; Plant response rating, Ragweed ([17]; 31 g ai/ha): 0; Plant response rating, Pigweed ([18]; 31 g ai/ha): 0
FC(F)(F)c1cc(-c2ncccc2Oc2ncc(Cl)cn2)ccn1 [Compound 14]	10	90	50	100	0	40	40	100	10	50	40	80	0	60	20	0	10	30	0	100	Plant response rating, Ryegrass, Italian ([1]; 500 g ai/ha): 20; Plant response rating, Foxtail, Giant ([2]; 500 g ai/ha): 100; Plant response rating, Galium ([3]; 500 g ai/ha): 90; Plant response rating, Pigweed ([4]; 500 g ai/ha): 100; Plant response rating, Wheat ([5]; 500 g ai/ha): 10; Plant response rating, Barnyardgrass ([6]; 500 g ai/ha): 100; Plant response rating, Barnyardgrass ([7]; 500 g ai/ha): 60; Plant response rating, Kochia (kochia (Kochia scoparia) [8]; 500 g ai/ha): 100; Plant response rating, Ragweed ([9]; 500 g ai/ha): 30; Plant response rating, Kochia (kochia (Kochia scoparia) [12]; 500 g ai/ha): 100; Plant response rating, Foxtail, Giant ([13]; 500 g ai/ha): 90; Plant response rating, Corn (corn (Zea mays); 500 g ai/ha): 40; Plant response rating, Blackgrass ([15]; 500 g ai/ha): 90; Plant response rating, Ryegrass, Italian ([16]; 500 g ai/ha): 40; Plant response rating, Ragweed ([17]; 500 g ai/ha): 20; Plant response rating, Pigweed ([18]; 500 g ai/ha): 100
